# In patent US20190038588A1, “NOVEL CLASS OF COMPOUNDS FOR THE TREATMENT OF CARDIOVASCULAR DISEASE” (STICHTING KATHOLIEKE UNIVERSITEIT, priority 2016, published 2019):
# What was measured:
# [1] = target: T1, HMG-CoA reductase (Homo sapiens, UniProt P04035); conditions: Kajinami K, 2003; Istvan ES, 2001; cited from earlier work
# T1 sequence (P04035 1-888): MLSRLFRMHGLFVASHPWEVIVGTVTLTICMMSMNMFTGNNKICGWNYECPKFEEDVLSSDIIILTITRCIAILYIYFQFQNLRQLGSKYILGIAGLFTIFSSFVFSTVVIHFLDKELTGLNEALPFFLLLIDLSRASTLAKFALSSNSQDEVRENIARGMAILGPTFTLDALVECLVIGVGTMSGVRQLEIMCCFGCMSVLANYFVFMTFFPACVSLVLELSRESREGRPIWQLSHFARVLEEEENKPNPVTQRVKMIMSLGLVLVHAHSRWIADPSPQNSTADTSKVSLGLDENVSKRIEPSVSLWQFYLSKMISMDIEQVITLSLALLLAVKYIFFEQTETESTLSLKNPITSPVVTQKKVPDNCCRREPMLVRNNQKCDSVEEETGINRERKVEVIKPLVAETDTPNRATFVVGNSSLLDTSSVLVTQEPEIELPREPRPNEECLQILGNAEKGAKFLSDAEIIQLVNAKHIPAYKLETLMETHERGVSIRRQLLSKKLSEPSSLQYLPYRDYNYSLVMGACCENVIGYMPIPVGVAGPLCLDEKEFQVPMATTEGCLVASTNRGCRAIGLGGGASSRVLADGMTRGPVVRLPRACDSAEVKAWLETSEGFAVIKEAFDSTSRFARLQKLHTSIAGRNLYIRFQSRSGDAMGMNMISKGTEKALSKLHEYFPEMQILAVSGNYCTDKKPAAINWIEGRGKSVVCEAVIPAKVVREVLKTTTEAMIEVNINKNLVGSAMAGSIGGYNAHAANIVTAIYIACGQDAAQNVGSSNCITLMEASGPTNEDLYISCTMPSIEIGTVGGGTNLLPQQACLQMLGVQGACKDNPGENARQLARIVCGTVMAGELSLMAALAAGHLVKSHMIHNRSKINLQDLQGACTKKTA
# [2] = target: T2, mitochondrial complex III (Mus musculus, UniProt P00158); assay: Complex III enzyme activity in mitochondrial fractions of C2C12 cells (cytochrome c reduction at 550 nm); format: biochemical; conditions: compound at 100 μM; background by antimycin A (2.5 μM); n = 3 independent experiments
# T2 construct: the supernatant containing the mitochondria was pelleted at 14,000 g; endogenous in cells; host or cells: C2C12 cells, mitochondrial fraction
# Description: C2C12 pellets of 20·10^6 cells were snap frozen in liquid nitrogen and kept at −80° C. until use. For preparation of the mitochondrial fractions, tissues and cells were homogenized, resuspended in 10 mM Tris-HCl (pH 7.6), and snap frozen in aliquots as follows: cells were resuspended in 10 mM Tris-HCl and pottered, and sucrose was added (215 mM). The lysate was cleared of unbroken cells by centrifugation (10 minutes 600 g) after which the supernatant containing the mitochondria was pelleted at 14,000 g for 10 minutes, resuspended in 10 mM Tris-HCl (pH 7.6), and snap frozen in aliquots. Complex III enzyme activity was measured spectrophotometrically in duplicate as described before by determination of the cytochrome c reduction at 550 nm (Janssen et al., 2007; Mourmans et al., 1997; Rodenburg, 2011). For these measurements the following substrates were used: decylubiquinol (300 μM) and cytochrome c (50 μM). Background substraction was based on decylubiquinol auto-oxidation rates for FIG. 2, and on antimycin A (2.5 μM) for table 4. The enzyme activity was determined using the linear domain of the curve. These experiments were generally performed in small reaction volumes to increase throughput. Experiments in larger reaction volumes can improve reliability of obtained values, and are planned.
# [3] = target: T3, catalytic domain of the human HMG-CoA reductase (Homo sapiens, UniProt P04035); assay: HMG-CoA reductase activity and inhibition assay (Sigma CS-1090 kit, NADPH oxidation at 340 nm); format: biochemical; conditions: for HMGR activity (% of control) Mean (SEM): compound at 300 nM, n = 3 independent experiments
# T3 construct: containing the catalytic domain of the human HMG-CoA reductase; purchased Sigma-Aldrich CS-1090
# T3 sequence (P04035 426-888 limits assumed): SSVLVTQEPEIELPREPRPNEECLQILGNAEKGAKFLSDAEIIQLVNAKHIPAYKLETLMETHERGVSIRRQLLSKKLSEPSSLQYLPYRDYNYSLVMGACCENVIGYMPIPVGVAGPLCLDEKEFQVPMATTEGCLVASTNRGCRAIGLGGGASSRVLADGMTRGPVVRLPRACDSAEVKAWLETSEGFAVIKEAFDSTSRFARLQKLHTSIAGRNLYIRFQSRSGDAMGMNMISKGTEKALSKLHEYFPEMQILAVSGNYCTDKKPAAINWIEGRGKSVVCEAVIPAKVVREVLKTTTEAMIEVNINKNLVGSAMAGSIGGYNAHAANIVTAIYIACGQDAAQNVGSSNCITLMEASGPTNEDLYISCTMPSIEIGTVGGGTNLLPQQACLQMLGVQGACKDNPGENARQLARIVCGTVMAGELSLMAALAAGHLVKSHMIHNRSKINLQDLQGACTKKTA
# Description: The human HMG-CoA reductase activity and inhibition assays were performed using the HMG-CoA reductase Assay Kit from Sigma-Aldrich (Sigma CS-1090), containing the catalytic domain of the human HMG-CoA reductase. Enzyme activity was determined spectrophotometrically, measuring the oxidation of NADPH at 340 nm. The reaction mixture contained: 0.13 mM HMG-CoA, HMG-CoA reductase, and 50 mM Tris-HCl, (pH 7.5). After 15 min incubation at 37° C., the reaction was started with the addition of 0.13 mM NADPH, and monitored for 30 min. The enzyme activity was determined using the linear domain of the curve. These experiments were generally performed in small reaction volumes to increase throughput. Experiments in larger reaction volumes can improve reliability of obtained values, and are planned.
Compound,IC50 [1] [nM],complex III activity (% of control) Mean (SEM) [2],HMGR activity (% of control) Mean (SEM) [3],"IC50 ([3]; dose-response curve of FIG. 2C, 95%-CI printed in the row below) [nM]"
O=C(O)C[C@H](O)C[C@H](O)/C=C/c1c(C2CC2)nc2ccccc2c1-c1ccc(F)cc1 [pitavastatine],7,–,–,–
"CC[C@H](C)C(=O)O[C@H]1C[C@@H](C)C=C2C=C[C@H](C)[C@H](CC[C@@H](O)C[C@@H](O)CC(N)=O)[C@H]21 [lovastatin amide, (1S,3R,7S,8S,8aR)-8-((3R,5R)-7-amino-3,5-dihydroxy-7-oxoheptyl)-3,7-dimethyl-1,2,3,7,8,8a-hexahydronaphthalen-1-yl (S)-2-methylbutanoate]",–,104.10 (12.47) % of control,102.30 (10.00) % of control,–
"CC(C)c1c(C(=O)Nc2ccccc2)c(-c2ccccc2)c(-c2ccc(F)cc2)n1CC[C@@H](O)C[C@@H](O)CC(=O)NO [atorvastatin hydroxamic acid, 1-((3R,5R)-3,5-dihydroxy-7-(hydroxyamino)-7-oxoheptyl)-5-(4-fluorophenyl)-2-isopropyl-N,4-diphenyl-1H-pyrrole-3-carboxamide]",–,105.60 (13.57) % of control,60.87 (4.50) % of control,–
"CCC(C)(C)C(=O)O[C@H]1C[C@@H](C)C=C2C=C[C@H](C)[C@H](CC[C@@H](O)C[C@@H](O)Cc3nc(=O)o[nH]3)[C@H]21 [simvastatin oxo-oxadiazole, (1S,3R,7S,8S,8aR)-8-((3R,5)-3,5-dihydroxy-6-(5-oxo-2,5-dihydro-1,2,4-oxadiazol-3-yl)hexyl)-3,7-dimethyl-1,2,3,7,8,8a-hexahydronaphthalen-1-yl 2,2-dimethylbutanoate]",–,74.37 (4.20) % of control,73.44 (2.81) % of control,–
"CC(C)c1nc(N(C)S(C)(=O)=O)nc(-c2ccc(F)cc2)c1/C=C/[C@@H](O)C[C@@H](O)CC(N)=O [rosuvastatin amide, (3R,5S,E)-7-(4-(4-fluorophenyl)-6-isopropyl-2-(N-methylmethylsulfonamido)-pyrimidin-5-yl)-3,5-dihydroxyhept-6-enamide]",–,94.39 (6.41) % of control,81.57 (10.29) % of control,–
"CC(C)c1nc(N(C)S(C)(=O)=O)nc(-c2ccc(F)cc2)c1/C=C/[C@@H](O)C[C@@H](O)CC(=O)NO [rosuvastatin hydroxamic acid, (3R,5S,E)-7-(4-(4-fluorophenyl)-6-isopropyl-2-(N-methylmethylsulfonamido)pyrimidin-5-yl)-N,3,5-trihydroxyhept-6-enamide]",–,90.25 (7.98) % of control,72.81 (9.03) % of control,–
"CC(C)c1c(C(=O)Nc2ccccc2)c(-c2ccccc2)c(-c2ccc(F)cc2)n1CC[C@@H](O)C[C@@H](O)CC(N)=O [atorvastatin amide, 1-((3R,5R)-7-amino-3,5-dihydroxy-7-oxoheptyl)-5-(4-fluorophenyl)-2-isopropyl-N,4-diphenyl-1H-pyrrole-3-carboxamide]",–,54.34 (7.70) % of control,97.37 (3.89) % of control,–
"CCC(C)(C)C(=O)O[C@H]1C[C@@H](C)C=C2C=C[C@H](C)[C@H](CC[C@@H](O)C[C@@H](O)CC(N)=O)[C@H]21 [simvastatin amide, (1S,3R,7S,8S,8aR)-8-((3R,5R)-7-amino-3,5-dihydroxy-7-oxoheptyl)-3,7-dimethyl-1,2,3,7,8,8a-hexahydronaphthalen-1-yl 2,2-dimethylbutanoate]",–,73.77 (7.57) % of control,110.10 (11.81) % of control,–
"CC(C)c1nc(N(C)S(C)(=O)=O)nc(-c2ccc(F)cc2)c1/C=C/[C@@H](O)C[C@@H](O)c1nnn[nH]1 [rosuvastatin nor-tetrazole, N-(5-((3S,5R,E)-3,5-dihydroxy-5-(1H-tetrazol-5-yl)pent-1-en-1-yl)-4-(4-fluorophenyl)-6-isopropylpyrimidin-2-yl)-N-methylmethanesulfonamide]",–,134.50 (17.29) % of control,86.12 (5.73) % of control,–
"CCC(C)(C)C(=O)O[C@H]1C[C@@H](C)C=C2C=C[C@H](C)[C@H](CC[C@@H](O)C[C@@H](O)CC(=O)NO)[C@H]21 [simvastatin hydroxamic acid, (1S,3R,7S,8S,8aR)-8-((3R,5R)-3,5-dihydroxy-7-(hydroxyamino)-7-oxoheptyl)-3,7-dimethyl-1,2,3,7,8,8a-hexahydronaphthalen-1-yl 2,2-dimethylbutanoate]",–,68.59 (5.73) % of control,38.83 (5.19) % of control,39
